Data from patent US20030082678A1, “Methods and compositions for regulating body weight in bovine species” (priority 2001, published 2003).
Several values for one entry are separate records, joined by “and”; a condition that tells them apart may be missing. Equal entries are not always repeated. Ends that are not written are not given here.

Legend:
bovine MC4-R = target: T1, bovine MC4-R (Bos taurus, UniProt Q9GLJ8); assay: CRE-luciferase reporter assay in human embryonic kidney 293 cells transiently co-transfected with bovine MC4-R; type: cell-based; conditions: for Luciferase Activity: 18 hrs, transiently transfected human embryonic kidney 293 cells
T1 construct: expressed in transfected cells; host or cells: human embryonic kidney 293 cells (ATCC CRL 1573), transient co-transfection of pcDNA3.1-bMC4R with the pGL2-promoter/CRE luciferase reporter
Protocol: The phagemid pBluescript-bMC4-R (10 μg) containing a full-length (1.9 kb) bovine MC4-R cDNA (SEQ ID NO:1) was digested using restriction endonucleases EcoRI (20 units, Gibco-BRL) and XhoI (20 units, Gibco-BRL) at 37° C. for 1 hr following the supplier's instructions. The resulting 1.9 kb bovine MC4-R cDNA fragment was then subcloned into the mammalian cell expression plasmid pcDNA3.1(+) (Invitrogen, Carlsband, Calif.) following standard cloning procedures (Sambrook et al., 1989, Molecular Cloning, A Laboratory Manual, Second Edition, Cold Spring Harbor Laboratory Press). The resulting bovine MC4-R expression plasmid, pcDNA3.1-bMC4R, was then used in conjunction with a reporter plasmid, pGL2-promoter/CRE (cyclic AMP activated transcription binding protein response element), to transiently co-transfect human embryonic kidney 293 cells (ATCC CRL 1573) using the LipofectAMINE PLUS reagent kit (Gibco-BRL, catalog no. 10964-013) following the supplier's instructions.
The pGL2-promoter/CRE plasmid, containing tandem cAMP activated transcription binding protein response elements from the rat somatostatin gene (Vallejo, et al., 1992, J. Biol. Chem. 267(18):12868-12875) and human chorionic gonadotropin (hCG) gene (Deutsch, et al., 1987, J. Biol. Chem. 262(25):12169-12174), was prepared following standard cloning procedures (Sambrook et al., supra). In brief, the plasmid was constructed by inserting a double stranded oligonucleotide linker, CRE-2 (SEQ ID NO:22), containing the rat somatostatin CRE sequence (5′-[…]-3′; SEQ ID NO:20), the human chorionic gonadotropin (hCG) CRE sequence (5′-AAATTGACGTCATGGTAA-3′; SEQ ID NO:21), and MluI and BglII cohesive ends, into the MluI and BglII sites, respectively, of plasmid pGL2-promoter (Promega, Madison, Wis., catalog no. E1631). The CRE-2 linker had the structure:
The CRE-2 oligonuceotide linker was prepared by first synthesizing the CREA and CREB oligonucleotides, including the MluI and BglII cohesive ends, using a DNA synthesizer Model 370 from PE-Biosystems (Foster City, Calif.). […]

[1] = target: bovine melanocortin 4 receptor protein (MC4-R) (bovine); assay: cell-based or functional assay

T1 sequence (Q9GLJ8 whole entry): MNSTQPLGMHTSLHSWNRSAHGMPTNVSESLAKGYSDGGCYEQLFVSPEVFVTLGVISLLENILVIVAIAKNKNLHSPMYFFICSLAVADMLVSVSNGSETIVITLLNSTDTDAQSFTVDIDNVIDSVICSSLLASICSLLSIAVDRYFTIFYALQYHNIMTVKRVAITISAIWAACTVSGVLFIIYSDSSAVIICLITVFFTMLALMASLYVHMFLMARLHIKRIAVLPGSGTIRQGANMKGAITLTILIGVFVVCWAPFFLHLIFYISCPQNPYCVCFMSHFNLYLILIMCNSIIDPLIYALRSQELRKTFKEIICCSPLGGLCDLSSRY

Row | Activation of cloned bovine MC4-R expressed in 293 cells (bovine MC4-R; human embryonic kidney 293 cells) | Luciferase Activity (bovine MC4-R; α-MSH 1 nM) | Luciferase Activity (bovine MC4-R; α-MSH 10 nM) | Luciferase Activity (CRE-luciferase reporter, 293 cells), 0 nM α-MSH (baseline without ligand) [1] | Luciferase Activity (CRE-luciferase reporter, 293 cells), 1 nM α-MSH [1] | Luciferase Activity (CRE-luciferase reporter, 293 cells), 10 nM α-MSH [1] | Molecule
1 | activated | 24.80 and 26.67 | 35.13 and 37.13 |  |  |  | α-MSH
2 |  |  |  | 8.19 and 7.78 | 24.8 and 26.7 | 35.1 and 37.1 | SYSMEHFRWGKPV (peptide, UniProt P01189 138-150, looked up, ends and bridges not checked) [human α-MSH]
